Entries after “also recorded” stand apart in the source; their conditions may differ.
Tests used:
[1] = system: adenovirus; test: QPA assay for adenovirus infectivity (stability of adenovirus in formulation); type: cell-based, adenovirus serotype 5 (Ad5); conditions: for Ad5 stability in the presence of preservative: in A195 buffer with the preservative, short-term accelerated stability, infectivity assays
Description: QPA Assay for Adenovirus Infectivity—The compatibility of preservatives with adenovirus was assessed by measuring the infectivity adenovirus using QPA assay. The QPA assay is based on the finding that the quantity of replicating adenoviral genomes, upon infection of 293 cells, is proportional to the input quantity of infectious adenovirus 24 hours post-infection (P.I.). The accumulated adenoviral genomes are purified using Qiagen 96-well Blood DNA Extraction Kit 24 hrs P.I. and quantitated using Perkin-Elmer TaqMan PCR technology. A standard curve is constructed by using the TaqMan PCR cycle threshold (CT) reflecting the quantity of accumulated adenoviral genomes due to infection and subsequent replication as a function of the input viral infectivity of standard curve material that is determined by independent TCID50 potency assay. The infectivity of samples is interpolated from the standard curve. Infectivity can be determined within 48-72 hours using this procedure. To determine the loss of adenovirus infectivity in stability samples the infectivity of the stability sample and the corresponding −70° C. control of the same formulation are determined during the same QPA run and on the same PCR plate. The loss of infectivity in the stability samples is expressed as log loss of infectivity compared to the −70° C. control.
Results—Adenovirus was formulated in A195 buffer containing preservatives (i.e., the A500 series of Table 3). The infectivity of adenovirus was measured using a Q-PCR based Potency Assay (QPA) after storage at certain temperatures (2-8, 15, 20, 25, 30, and 37° C.) and compared to the control (corresponding sample stored at −70° C.). The stability of adenovirus was quantitatively presented as “Log Loss of Adenovirus Infectivity”. Variability of the QPA assay is reported to be +/−0.15 logs.

[2] = system: S. aureus, P. aeruginosa, E. coli, C. albicans, A. niger; test: Antimicrobial effectiveness (AME) testing, overall result; conditions: formulated in A195 buffer
[3] = Solubility of preservative in A195 buffer; type: physicochemical

Compound | Ad5 stability in the presence of preservative [1] | AME testing, overall result in words [2] | effects on the stability of adenovirus (log loss of infectivity, FIG. 1) ([1]; 0.5% (w/v) chlorobutanol or 0.2% (w/v) benzoic acid in A195 pH 6.8, MRKAd5pol 10^10 VP/ml, 37° C. 1-4 weeks vs −70° C.) | solubility in A195 buffer [3]
OCc1ccccc1 [benzyl alcohol] | very poor stability | effective antimicrobial preservatives | – | –
O=C(O)c1ccccc1 [benzoic acid] | compatible with adenovirus; also recorded: compatible with Ad5 | failed AME testing | no significant effects | –
Oc1ccccc1 [phenol] | very unstable | effective antimicrobial preservatives | – | –
Cc1cccc(O)c1 [m-cresol] | – | effective antimicrobial preservatives | – | poor solubility
CC(C)(C)CC(C)(C)c1ccc(OCCOCC[N+](C)(C)Cc2ccccc2)cc1 [benzethonium chloride] | – | effective antimicrobial preservatives | – | –
